Results taken from the NIST ThermoML archive (doi:10.1016/j.jct.2011.08.016).
± gives the expanded uncertainty stated by the source.

Test: xn = mol fraction of the nth substance listed
Conditions: Liquid, Vibrating tube method

CCCCCCCCCC [decane] + CCCCCCCC
Conditions | mass density [kg/m3]
343.12 K, 23000 kPa, x2 = 0.7736 | 693.03 ± 0.56
343.12 K, 24000 kPa, x2 = 0.2801 | 707.17 ± 0.55
343.12 K, 24000 kPa, x2 = 0.5314 | 700.89 ± 0.56
343.12 K, 24000 kPa, x2 = 0.7736 | 693.84 ± 0.56
343.12 K, 25000 kPa, x2 = 0.2801 | 707.92 ± 0.55
343.12 K, 25000 kPa, x2 = 0.5314 | 701.69 ± 0.56
343.12 K, 25000 kPa, x2 = 0.7736 | 694.61 ± 0.57
343.13 K, 1000 kPa, x2 = 0.9623 | 664.48 ± 0.42
343.13 K, 2000 kPa, x2 = 0.9623 | 665.59 ± 0.43
343.13 K, 3000 kPa, x2 = 0.9623 | 666.77 ± 0.43
343.13 K, 4000 kPa, x2 = 0.9623 | 667.86 ± 0.44
343.13 K, 5000 kPa, x2 = 0.9623 | 668.95 ± 0.44
343.13 K, 6000 kPa, x2 = 0.9623 | 670.06 ± 0.45
343.13 K, 7000 kPa, x2 = 0.9623 | 671.17 ± 0.46
343.13 K, 8000 kPa, x2 = 0.9623 | 672.27 ± 0.46
343.13 K, 9000 kPa, x2 = 0.9623 | 673.35 ± 0.47
343.13 K, 10000 kPa, x2 = 0.9623 | 674.41 ± 0.47
343.13 K, 10990 kPa, x2 = 0.9623 | 675.48 ± 0.48
343.13 K, 12000 kPa, x2 = 0.9623 | 676.54 ± 0.49
343.13 K, 13000 kPa, x2 = 0.9623 | 677.56 ± 0.49
343.13 K, 14000 kPa, x2 = 0.9623 | 678.58 ± 0.5
343.13 K, 15000 kPa, x2 = 0.9623 | 679.6 ± 0.51
343.13 K, 16000 kPa, x2 = 0.9623 | 680.56 ± 0.51
343.13 K, 17000 kPa, x2 = 0.9623 | 681.54 ± 0.52
343.13 K, 18000 kPa, x2 = 0.9623 | 682.46 ± 0.53
343.13 K, 19000 kPa, x2 = 0.9623 | 683.41 ± 0.53
343.13 K, 20000 kPa, x2 = 0.9623 | 684.31 ± 0.54
343.13 K, 21000 kPa, x2 = 0.9623 | 685.19 ± 0.55
343.13 K, 22000 kPa, x2 = 0.9623 | 686.05 ± 0.56
343.13 K, 23000 kPa, x2 = 0.9623 | 686.9 ± 0.56
343.13 K, 24000 kPa, x2 = 0.9623 | 687.72 ± 0.57
343.13 K, 25000 kPa, x2 = 0.9623 | 688.5 ± 0.58
353.08 K, 1000 kPa, x2 = 0.9623 | 656.17 ± 0.42
353.08 K, 2000 kPa, x2 = 0.9623 | 657.39 ± 0.43
353.08 K, 3000 kPa, x2 = 0.9623 | 658.62 ± 0.43
353.08 K, 4000 kPa, x2 = 0.9623 | 659.85 ± 0.44
353.08 K, 5000 kPa, x2 = 0.9623 | 660.99 ± 0.45
353.08 K, 6000 kPa, x2 = 0.9623 | 662.16 ± 0.45
353.08 K, 7000 kPa, x2 = 0.9623 | 663.38 ± 0.46
353.08 K, 8000 kPa, x2 = 0.9623 | 664.55 ± 0.46
353.08 K, 9000 kPa, x2 = 0.9623 | 665.71 ± 0.47
353.08 K, 10000 kPa, x2 = 0.9623 | 666.85 ± 0.48
353.08 K, 10990 kPa, x2 = 0.9623 | 667.94 ± 0.48
353.08 K, 12000 kPa, x2 = 0.9623 | 669.1 ± 0.49
353.08 K, 13000 kPa, x2 = 0.9623 | 670.16 ± 0.5
353.08 K, 14000 kPa, x2 = 0.9623 | 671.22 ± 0.5
353.08 K, 15000 kPa, x2 = 0.9623 | 672.32 ± 0.51
353.08 K, 16000 kPa, x2 = 0.9623 | 673.37 ± 0.52
353.08 K, 17000 kPa, x2 = 0.9623 | 674.4 ± 0.52
353.08 K, 18000 kPa, x2 = 0.9623 | 675.38 ± 0.53
353.08 K, 19000 kPa, x2 = 0.9623 | 676.37 ± 0.54
353.08 K, 20000 kPa, x2 = 0.9623 | 677.3 ± 0.55
353.08 K, 21000 kPa, x2 = 0.9623 | 678.26 ± 0.55
353.08 K, 22000 kPa, x2 = 0.9623 | 679.19 ± 0.56
353.08 K, 23000 kPa, x2 = 0.9623 | 680.04 ± 0.57
353.08 K, 24000 kPa, x2 = 0.9623 | 680.91 ± 0.58
353.08 K, 25000 kPa, x2 = 0.9623 | 681.75 ± 0.58
353.12 K, 1000 kPa, x2 = 0.0616 | 683.44 ± 0.42
353.12 K, 1000 kPa, x2 = 0.2801 | 678.06 ± 0.42
353.12 K, 1000 kPa, x2 = 0.5314 | 670.91 ± 0.42
353.12 K, 1000 kPa, x2 = 0.7736 | 663 ± 0.42
353.12 K, 2000 kPa, x2 = 0.0616 | 684.54 ± 0.42
353.12 K, 2000 kPa, x2 = 0.2801 | 679.14 ± 0.42
353.12 K, 2000 kPa, x2 = 0.5314 | 672.1 ± 0.42
353.12 K, 2000 kPa, x2 = 0.7736 | 664.25 ± 0.43
353.12 K, 3000 kPa, x2 = 0.0616 | 685.62 ± 0.42
353.12 K, 3000 kPa, x2 = 0.2801 | 680.24 ± 0.43
353.12 K, 3000 kPa, x2 = 0.5314 | 673.23 ± 0.43
353.12 K, 3000 kPa, x2 = 0.7736 | 665.41 ± 0.43
353.12 K, 4000 kPa, x2 = 0.0616 | 686.69 ± 0.43
353.12 K, 4000 kPa, x2 = 0.2801 | 681.31 ± 0.43
353.12 K, 4000 kPa, x2 = 0.5314 | 674.37 ± 0.43
353.12 K, 4000 kPa, x2 = 0.7736 | 666.6 ± 0.44
353.12 K, 5000 kPa, x2 = 0.0616 | 687.76 ± 0.43
353.12 K, 5000 kPa, x2 = 0.2801 | 682.4 ± 0.44
353.12 K, 5000 kPa, x2 = 0.5314 | 675.52 ± 0.44
353.12 K, 5000 kPa, x2 = 0.7736 | 667.77 ± 0.44
353.12 K, 6000 kPa, x2 = 0.0616 | 688.82 ± 0.44
353.12 K, 6000 kPa, x2 = 0.2801 | 683.48 ± 0.44
353.12 K, 6000 kPa, x2 = 0.5314 | 676.65 ± 0.44
353.12 K, 6000 kPa, x2 = 0.7736 | 668.95 ± 0.45
353.12 K, 7000 kPa, x2 = 0.0616 | 689.85 ± 0.44
353.12 K, 7000 kPa, x2 = 0.2801 | 684.52 ± 0.45
353.12 K, 7000 kPa, x2 = 0.5314 | 677.77 ± 0.45
353.12 K, 7000 kPa, x2 = 0.7736 | 670.08 ± 0.45
353.12 K, 8000 kPa, x2 = 0.0616 | 690.88 ± 0.45
353.12 K, 8000 kPa, x2 = 0.2801 | 685.57 ± 0.45
353.12 K, 8000 kPa, x2 = 0.5314 | 678.86 ± 0.46
353.12 K, 8000 kPa, x2 = 0.7736 | 671.21 ± 0.46
353.12 K, 9000 kPa, x2 = 0.0616 | 691.9 ± 0.45
353.12 K, 9000 kPa, x2 = 0.2801 | 686.58 ± 0.46
353.12 K, 9000 kPa, x2 = 0.5314 | 679.93 ± 0.46
353.12 K, 9000 kPa, x2 = 0.7736 | 672.31 ± 0.47
353.12 K, 10000 kPa, x2 = 0.0616 | 692.88 ± 0.46
